From patent US11400063B2, “Early administration of low-dose colchicine after myocardial infarction” (INSTITUT DE CARDIOLOGIE DE MONTREAL, priority 2019, dated 2022)
Where “and” joins values, the source holds several entries; their conditions need not be identical. Equal entries are not always repeated.

Test system: patients recruited within 30 days after a myocardial infarction
Assay: COLCOT randomized double-blind trial, efficacy end points, colchicine 0.5 mg once daily vs placebo
Type: in vivo, human
Settings: for Total primary endpoint events, Rate Ratio (95% CI): Negative binomial model, marginal rate ratio; for Rate of primary endpoint events per 100 patient-months: first and recurrent events
Description: We performed a randomized, double-blind trial involving patients recruited within 30 days after a myocardial infarction. The patients were randomly assigned to receive either low-dose colchicine (0.5 mg once daily) or placebo. A total of 4745 patients were enrolled; 2386 patients were assigned to the colchicine group, and 2379 to the placebo group. Patients were followed for a median of 22.6 months.
The primary efficacy end point was a composite of death from cardiovascular causes, resuscitated cardiac arrest, myocardial infarction (e.g., acute myocardial infraction or type II myocardial infarction), stroke, or urgent hospitalization for angina leading to coronary revascularization. The components of the primary end point and safety were also assessed.
COLCOT was an international multicenter, randomized, double-blinded trial that randomly assigned patients to receive either low-dose colchicine (0.5 mg once daily) or placebo. The study protocol and main results have been published (see, Tardif et al., N Engl J Med 2019). […] Main exclusion criteria were severe heart failure, reduced left ventricular ejection fraction (<35%), recent stroke (<3 months), type 2 MI, recent (<3 years) or planned coronary artery bypass graft (CABG), history of cancer (<3 years), and inflammatory bowel disease or chronic diarrhea. All patients enrolled in the trial benefited from percutaneous coronary intervention whenever indicated and guidelines-directed management of CV disease prior to randomization (see. Tardif et al., N Engl J Med 2019).
Clinical follow-up consisted of evaluations at 1 and 3 months after randomization and every 3 months thereafter. An independent clinical endpoint committee, blinded to trial-group assignment, adjudicated clinical endpoints. The trial was locally approved by the various institutional review boards, and all patients signed a written informed consent before enrollment.
The primary efficacy endpoint was a composite of CV death, resuscitated cardiac arrest, MI, stroke, or urgent hospitalization for angina requiring coronary revascularization. The secondary endpoints consisted of the components of the primary efficacy endpoint, all-cause death, and a composite of CV death, resuscitated cardiac arrest, MI, or stroke. Exploratory endpoints included all coronary revascularizations, including both elective and urgent coronary revascularizations.
The primary efficacy endpoint was a composite of cardiovascular death, MI, ischemic stroke, and urgent coronary revascularization. Secondary efficacy endpoints consisted of the components of the primary endpoint, composite of cardiovascular death, MI, and ischemic stroke, as well as deep vein thrombosis or pulmonary embolus, and atrial fibrillation (AF). To maximize consistency in pooling efficacy endpoints among trials, the primary and secondary composite efficacy and stroke endpoints in COLCOT were modified to meet the definition of primary and stroke endpoints of the LoDoCo2 trial. Therefore, adjudicated events of resuscitated cardiac arrest and non-ischemic stroke in COLCOT were excluded from the pooled primary endpoint. The component endpoint of stroke was also restricted to include only ischemic strokes. Incidence rates and hazards ratios (HRs) were calculated for the new primary composite endpoint and ischemic stroke endpoint using individual patient data from COLCOT.
The COLCOT trial was performed as follows. A randomized, double-blind trial involving patients recruited within 30 days after a myocardial infarction was performed. The patients were randomly assigned to receive either low-dose colchicine (0.5 mg once daily) or placebo. A total of 4745 patients were enrolled; 2386 patients were assigned to the colchicine group, and 2379 to the placebo group. […]

[1] = COLCOT endpoint modified to LoDoCo2 definition
[2] = intention-to-treat population, listed as colchicine
[3] = intention-to-treat, colchicine vs placebo
[4] = intention-to-treat, colchicine vs placebo, listed as colchicine

COc1cc2c(c(OC)c1OC)-c1ccc(OC)c(=O)cc1[C@@H](NC(C)=O)CC2 [Colchicine, colchicine]
Total number of primary endpoint events (first and recurrent) (52949 patient-months of follow-up): 154 | Primary efficacy composite endpoint, no. of patients with event/total no. of patients (All patients): 131/2366 | Total primary endpoint events, Hazard Ratio (95% CI) (Andersen-Gill model): 0.69 (0.54; 0.88) | Primary composite outcome (cardiovascular mortality, myocardial infarction, ischemic stroke, urgent revascularization), Events % [1]: (5.5%) | Primary composite outcome (cardiovascular mortality, myocardial infarction, ischemic stroke, urgent revascularization), HR (95% CI) [1]: 0.77 (0.61-0.97) | Primary composite outcome (cardiovascular mortality, myocardial infarction, ischemic stroke, urgent revascularization), Events N (COLCOT endpoint modified to LoDoCo2 definition, N = 2366): 130 N | Ischemic stroke, Events % (COLCOT, only ischemic strokes): 0.2% | Ischemic stroke, Events N (COLCOT, only ischemic strokes): 4 N | Ischemic stroke, HR (95% CI) (COLCOT, only ischemic strokes): 0.25 (0.08-0.75) | Ischemic stroke, HR (95% CI) (COLCOT, only ischemic strokes, listed as colchicine): 0.25 | Number of patients with 0 primary endpoint events per patient (N = 2366): 2235 | Number of patients with 1 primary endpoint event per patient (N = 2366): 111 | Number of patients with 2 primary endpoint events per patient (N = 2366): 18 | Number of patients with 3 primary endpoint events per patient (N = 2366): 1 | Number of patients with 4 primary endpoint events per patient (N = 2366): 1 | Total primary endpoint events, Rate Ratio (95% CI): 0.66 (0.51; 0.86) | Total primary endpoint events, Rate Ratio (95% CI) (listed as colchicine): 0.66 | Total primary endpoint events, Hazard Ratio (95% CI) (WLW model, 1st Event): 0.77 (0.61; 0.96) | Total primary endpoint events, Hazard Ratio (95% CI) (WLW model, 2nd Event): 0.73 (0.48; 1.11) | Total primary endpoint events, Hazard Ratio (95% CI) (WLW model, 3rd Event): 0.64 (0.37; 1.10) | Total primary endpoint events, Hazard Ratio (95% CI) (WLW model, Average): 0.77 (0.61; 0.96) | Rate of primary endpoint events per 100 patient-months: 0.29 per 100 patient-months | Rate of primary endpoint events per 100 patient-months (listed as colchicine): 029 per 100 patient-months | Atrial fibrillation, number of patients (intention-to-treat population): 36 number | Atrial fibrillation, percent of patients (intention-to-treat population): (1.5) percent | Death from cardiovascular causes, number of patients (intention-to-treat population): 20 number | Death, number of patients (intention-to-treat population): 43 number | Death, percent of patients (intention-to-treat population): (1.8) percent | Deep venous thrombosis or pulmonary embolus, number of patients (intention-to-treat population): 10 number | Deep venous thrombosis or pulmonary embolus, percent of patients (intention-to-treat population): (0.4) percent | Myocardial infarction, number of patients (intention-to-treat population): 89 number | Resuscitated cardiac arrest, number of patients (intention-to-treat population): 5 number | Resuscitated cardiac arrest, percent of patients (intention-to-treat population): (0.2) percent | Secondary composite end point, percent of patients (intention-to-treat population): (4.7) percent | Stroke, number of patients (intention-to-treat population): 5 number | Stroke, percent of patients (intention-to-treat population): (0.2) percent | Urgent hospitalization for angina leading to revascularization, number of patients (intention-to-treat population): 25 number | Primary composite end point, number of patients (intention-to-treat population, N = 2366, median follow-up 22.6 months): 131 number | Primary composite end point, percent of patients [2]: 5.5% | Secondary composite end point, percent of patients [2]: 4.7% | Atrial fibrillation, Hazard Ratio (95% CI) [3]: 0.93 (0.59-1.46) | Death from cardiovascular causes, Hazard Ratio (95% CI) [3]: 0.84 (0.46-1.52) | Death, Hazard Ratio (95% CI) [3]: 0.98 (0.64-1.49) | Deep venous thrombosis or pulmonary embolus, Hazard Ratio (95% CI) [3]: 1.43 (0.54-3.75) | Myocardial infarction, Hazard Ratio (95% CI) [3]: 0.91 (0.68-1.21) | Primary composite end point, Hazard Ratio (95% CI) [3]: 0.77 (0.61-0.96) | Resuscitated cardiac arrest, Hazard Ratio (95% CI) [3]: 0.83 (0.25-2.73) | Secondary composite end point, Hazard Ratio (95% CI) [3]: 0.85 (0.66-1.10) | Stroke, Hazard Ratio (95% CI) [3]: 0.26 (0.10-0.70) | Urgent hospitalization for angina leading to revascularization, Hazard Ratio (95% CI) [3]: 0.50 (0.31-0.81) and 0.50 (0.31.-0.81) | Death from cardiovascular causes, Hazard Ratio (95% CI) [4]: 0.84 | Myocardial infarction, Hazard Ratio (95% CI) [4]: 0.91 | Primary composite end point, Hazard Ratio (95% CI) [4]: 0.77 | Resuscitated cardiac arrest, Hazard Ratio (95% CI) [4]: 0.83 | Secondary composite end point, Hazard Ratio (95% CI) [4]: 0.85 | Stroke, Hazard Ratio (95% CI) [4]: 0.26 | Urgent hospitalization for angina leading to revascularization, Hazard Ratio (95% CI) [4]: 0.50 | Secondary composite end point, number of patients (intention-to-treat, death from cardiovascular causes, resuscitated cardiac arrest, myocardial infarction, and stroke): 111 number | reduction of the risk of ischemic CV events (main COLCOT results, post-MI setting): 23% | Time to first primary endpoint, Adjusted Hazard Ratio (95% CI) (multivariable Cox regression model, colchicine vs. placebo, 4745 observations): 0.78 (0.62-0.98) | MI, % of patients (per-protocol population): (3.4%) | MI, no. of patients (per-protocol population): 77 no. | Primary endpoint, % of patients (per-protocol population): (5.1%)
